Measured values published in ChEMBL document CHEMBL3297661, “1-Substituted-5-[(3,5-dinitrobenzyl)sulfanyl]-1H-tetrazoles and their isosteric analogs: A new class of selective antitubercular agents active against drug-susceptible and multidrug-resistant mycobacteria” (Eur J Med Chem, 2014).
pIC50: −log10 of the molar value. In brackets after ≈: the same amount, converted by molar mass.

What was measured:
Enterococcus faecalis [1] = experiment: Antibacterial activity against Enterococcus faecalis J 14365/08 after 24 hrs by broth microdilution method; assay type: functional; conditions: J 14365/08, 24 h
Mycobacterium kansasii [2] = experiment: Antimycobacterial activity against Mycobacterium kansasii 6509/96 after 14 days by micromethod; assay type: functional; conditions: 6509/96, 336 h
Enterococcus faecalis [3] = experiment: Antibacterial activity against Enterococcus faecalis J 14365/08 after 48 hrs by broth microdilution method; assay type: functional; conditions: J 14365/08, 48 h
Staphylococcus aureus [4] = experiment: Antibacterial activity against Staphylococcus aureus ATCC 6538 after 48 hrs by broth microdilution method; assay type: functional; conditions: ATCC 6538, 48 h
Pichia kudriavzevii [5] = experiment: Antifungal activity against Candida krusei E28 after 48 hrs by broth microdilution method; assay type: functional; conditions: E28, 48 h
Staphylococcus aureus [6] = experiment: Antibacterial activity against Staphylococcus aureus ATCC 6538 after 24 hrs by broth microdilution method; assay type: functional; conditions: ATCC 6538, 24 h
Mycobacterium kansasii [7] = experiment: Antimycobacterial activity against Mycobacterium kansasii CNCTC My 235/80 after 14 days by micromethod; assay type: functional; conditions: CNCTC My 235/80, 336 h
Trichosporon asahii [8] = experiment: Antifungal activity against Trichosporon asahii 1188 after 48 hrs by broth microdilution method; assay type: functional; conditions: Trichosporon asahii, 1188, 48 h
Candida albicans [9] = experiment: Antifungal activity against Candida albicans ATCC 44859 after 48 hrs by broth microdilution method; assay type: functional; conditions: ATCC 44859, 48 h
Mycobacterium avium [10] = experiment: Antimycobacterial activity against Mycobacterium avium CNCTC My 330/88 after 21 days by micromethod; assay type: functional; conditions: CNCTC My 330/88, 504 h
Lichtheimia corymbifera [11] = experiment: Antifungal activity against Absidia corymbifera 272 after 48 hrs by broth microdilution method; assay type: functional, organism-based; conditions: Lichtheimia corymbifera, 272, 48 h
Mycobacterium kansasii [12] = experiment: Antimycobacterial activity against Mycobacterium kansasii CNCTC My 235/80 after 7 days by micromethod; assay type: functional; conditions: CNCTC My 235/80, 168 h
Candida albicans [13] = experiment: Antifungal activity against Candida albicans ATCC 44859 after 24 hrs by broth microdilution method; assay type: functional; conditions: ATCC 44859, 24 h
[14] = tested on: Trichophyton mentagrophytes; experiment: Antifungal activity against Trichophyton mentagrophytes 445 after 72 hrs by broth microdilution method; assay type: functional, organism-based; conditions: Trichophyton mentagrophytes, 445, 72 h
[15] = tested on: Mycobacterium tuberculosis; experiment: Antimycobacterial activity against Mycobacterium tuberculosis CNCTC My 331/88 after 14 days by micromethod; assay type: functional; conditions: CNCTC My 331/88, 336 h
Pseudomonas aeruginosa [16] = experiment: Antibacterial activity against Pseudomonas aeruginosa ATCC 9027 after 24 hrs by broth microdilution method; assay type: functional; conditions: ATCC 9027, 24 h
Klebsiella pneumoniae [17] = experiment: Antibacterial activity against Klebsiella pneumoniae D 11750/08 after 24 hrs by broth microdilution method; assay type: functional; conditions: D 11750/08, 24 h
Aspergillus fumigatus [18] = experiment: Antifungal activity against Aspergillus fumigatus 231 after 24 hrs by broth microdilution method; assay type: functional, organism-based; conditions: Aspergillus fumigatus, 231, 24 h
Candida tropicalis [19] = experiment: Antifungal activity against Candida tropicalis 156 after 24 hrs by broth microdilution method; assay type: functional; conditions: Candida tropicalis, 156, 24 h
[20] = tested on: Mycobacterium tuberculosis; experiment: Antimycobacterial activity against Mycobacterium tuberculosis CNCTC My 331/88 after 21 days by micromethod; assay type: functional; conditions: CNCTC My 331/88, 504 h
Nakaseomyces glabratus [21] = experiment: Antifungal activity against Candida glabrata 20/I after 24 hrs by broth microdilution method; assay type: functional
Mycobacterium kansasii [22] = experiment: Antimycobacterial activity against Mycobacterium kansasii 6509/96 after 7 days by micromethod; assay type: functional; conditions: 6509/96, 168 h
Pichia kudriavzevii [23] = experiment: Antifungal activity against Candida krusei E28 after 24 hrs by broth microdilution method; assay type: functional; conditions: E28, 24 h
Staphylococcus aureus [24] = experiment: Antibacterial activity against methicillin-resistant Staphylococcus aureus H 5996/08 after 48 hrs by broth microdilution method; assay type: functional; conditions: H 5996/08, 48 h
[25] = tested on: Staphylococcus epidermidis; experiment: Antibacterial activity against Staphylococcus epidermidis H 6966/08 after 24 hrs by broth microdilution method; assay type: functional; conditions: H 6966/08, 24 h
Staphylococcus aureus [26] = experiment: Antibacterial activity against methicillin-resistant Staphylococcus aureus H 5996/08 after 24 hrs by broth microdilution method; assay type: functional; conditions: H 5996/08, 24 h
Mycobacterium kansasii [27] = experiment: Antimycobacterial activity against Mycobacterium kansasii 6509/96 after 21 days by micromethod; assay type: functional; conditions: 6509/96, 504 h
Pseudomonas aeruginosa [28] = experiment: Antibacterial activity against Pseudomonas aeruginosa ATCC 9027 after 48 hrs by broth microdilution method; assay type: functional; conditions: ATCC 9027, 48 h
Mycobacterium avium [29] = experiment: Antimycobacterial activity against Mycobacterium avium CNCTC My 330/88 after 14 days by micromethod; assay type: functional; conditions: CNCTC My 330/88, 336 h
Escherichia coli [30] = experiment: Antibacterial activity against Escherichia coli ATCC 8739 after 48 hrs by broth microdilution method; assay type: functional; conditions: ATCC 8739, ATCC 8739, 48 h
Klebsiella pneumoniae [31] = experiment: Antibacterial activity against Klebsiella pneumoniae D 11750/08 after 48 hrs by broth microdilution method; assay type: functional; conditions: D 11750/08, 48 h
[32] = tested on: Trichophyton mentagrophytes; experiment: Antifungal activity against Trichophyton mentagrophytes 445 after 120 hrs by broth microdilution method; assay type: functional, organism-based; conditions: Trichophyton mentagrophytes, 445, 120 h
Mycobacterium kansasii [33] = experiment: Antimycobacterial activity against Mycobacterium kansasii CNCTC My 235/80 after 21 days by micromethod; assay type: functional; conditions: CNCTC My 235/80, 504 h
Aspergillus fumigatus [34] = experiment: Antifungal activity against Aspergillus fumigatus 231 after 48 hrs by broth microdilution method; assay type: functional, organism-based; conditions: Aspergillus fumigatus, 231, 48 h
[35] = tested on: Staphylococcus epidermidis; experiment: Antibacterial activity against Staphylococcus epidermidis H 6966/08 after 48 hrs by broth microdilution method; assay type: functional; conditions: H 6966/08, 48 h
Nakaseomyces glabratus [36] = experiment: Antifungal activity against Candida glabrata 20/I after 48 hrs by broth microdilution method; assay type: functional
Klebsiella pneumoniae [37] = experiment: Antibacterial activity against extended spectrum beta-lactamase producing Klebsiella pneumoniae J 14368/08 after 24 hrs by broth microdilution method; assay type: functional; conditions: J 14368/08, 24 h
Trichosporon asahii [38] = experiment: Antifungal activity against Trichosporon asahii 1188 after 24 hrs by broth microdilution method; assay type: functional; conditions: Trichosporon asahii, 1188, 24 h
Klebsiella pneumoniae [39] = experiment: Antibacterial activity against extended spectrum beta-lactamase producing Klebsiella pneumoniae J 14368/08 after 48 hrs by broth microdilution method; assay type: functional; conditions: J 14368/08, 48 h
Escherichia coli [40] = experiment: Antibacterial activity against Escherichia coli ATCC 8739 after 24 hrs by broth microdilution method; assay type: functional; conditions: ATCC 8739, ATCC 8739, 24 h
Lichtheimia corymbifera [41] = experiment: Antifungal activity against Absidia corymbifera 272 after 24 hrs by broth microdilution method; assay type: functional, organism-based; conditions: Lichtheimia corymbifera, 272, 24 h
Candida tropicalis [42] = experiment: Antifungal activity against Candida tropicalis 156 after 48 hrs by broth microdilution method; assay type: functional; conditions: Candida tropicalis, 156, 48 h

## O=[N+]([O-])c1cc(CSc2cccc[n+]2[O-])cc([N+](=O)[O-])c1
Enterococcus faecalis [1]
  IC95: > 500 µM
Mycobacterium kansasii [2]
  MIC: 125 µM (≈ 38.4 µg/mL)
Enterococcus faecalis [3]
  IC95: > 500 µM
Staphylococcus aureus [4]
  IC95: > 500 µM
Pichia kudriavzevii [5]
  IC80: > 500 µM
Staphylococcus aureus [6]
  IC95: > 500 µM
Mycobacterium kansasii [7]
  MIC: 32 µM (≈ 9.83 µg/mL)
Trichosporon asahii [8]
  IC80: > 500 µM
Candida albicans [9]
  IC80: > 500 µM
Mycobacterium avium [10]
  MIC: 1000 µM (≈ 307 µg/mL)
Lichtheimia corymbifera [11]
  pIC50: < 3.30
Mycobacterium kansasii [12]
  MIC: 16 µM (≈ 4.92 µg/mL)
Candida albicans [13]
  IC80: > 500 µM
[14]
  pIC50: < 3.30
[15]
  MIC: 62 µM (≈ 19.1 µg/mL)
Pseudomonas aeruginosa [16]
  IC95: > 500 µM
Klebsiella pneumoniae [17]
  IC95: > 500 µM
Aspergillus fumigatus [18]
  pIC50: < 3.30
Candida tropicalis [19]
  IC80: > 500 µM
[20]
  MIC: 62 µM (≈ 19.1 µg/mL)
Nakaseomyces glabratus [21]
  IC80: > 500 µM
Mycobacterium kansasii [22]
  MIC: 125 µM (≈ 38.4 µg/mL)
Pichia kudriavzevii [23]
  IC80: > 500 µM
Staphylococcus aureus [24]
  IC95: > 500 µM
[25]
  IC95: > 500 µM
Staphylococcus aureus [26]
  IC95: > 500 µM
Mycobacterium kansasii [27]
  MIC: 125 µM (≈ 38.4 µg/mL)
Pseudomonas aeruginosa [28]
  IC95: > 500 µM
Mycobacterium avium [29]
  MIC: 500 µM (≈ 154 µg/mL)
Escherichia coli [30]
  IC95: > 500 µM
Klebsiella pneumoniae [31]
  IC95: > 500 µM
[32]
  pIC50: < 3.30
Mycobacterium kansasii [33]
  MIC: 32 µM (≈ 9.83 µg/mL)
Aspergillus fumigatus [34]
  pIC50: < 3.30
[35]
  IC95: > 500 µM
Nakaseomyces glabratus [36]
  IC80: > 500 µM
Klebsiella pneumoniae [37]
  IC95: > 500 µM
Trichosporon asahii [38]
  IC80: > 500 µM
Klebsiella pneumoniae [39]
  IC95: > 500 µM
Escherichia coli [40]
  IC95: > 500 µM
Lichtheimia corymbifera [41]
  pIC50: < 3.30
Candida tropicalis [42]
  IC80: > 500 µM

## O=C(O)c1cccc(-n2nnnc2SCc2cc([N+](=O)[O-])cc([N+](=O)[O-])c2)c1
Enterococcus faecalis [1]
  IC95: > 500 µM
Mycobacterium kansasii [2]
  MIC: 1000 µM (≈ 402 µg/mL)
Enterococcus faecalis [3]
  IC95: > 500 µM
Staphylococcus aureus [4]
  IC95: > 500 µM
Pichia kudriavzevii [5]
  IC80: > 500 µM
Staphylococcus aureus [6]
  IC95: > 500 µM
Mycobacterium kansasii [7]
  MIC: 1000 µM (≈ 402 µg/mL)
Trichosporon asahii [8]
  IC80: > 500 µM
Candida albicans [9]
  IC80: > 500 µM
Mycobacterium avium [10]
  MIC: 1000 µM (≈ 402 µg/mL)
Lichtheimia corymbifera [11]
  pIC50: < 3.30
Mycobacterium kansasii [12]
  MIC: 500 µM (≈ 201 µg/mL)
Candida albicans [13]
  IC80: > 500 µM
[14]
  pIC50: < 3.30
[15]
  MIC: 1000 µM (≈ 402 µg/mL)
Pseudomonas aeruginosa [16]
  IC95: > 500 µM
Klebsiella pneumoniae [17]
  IC95: > 500 µM
Aspergillus fumigatus [18]
  pIC50: < 3.30
Candida tropicalis [19]
  IC80: > 500 µM
[20]
  MIC: 1000 µM (≈ 402 µg/mL)
Nakaseomyces glabratus [21]
  IC80: > 500 µM
Mycobacterium kansasii [22]
  MIC: 1000 µM (≈ 402 µg/mL)
Pichia kudriavzevii [23]
  IC80: > 500 µM
Staphylococcus aureus [24]
  IC95: > 500 µM
[25]
  IC95: 500 µM
Staphylococcus aureus [26]
  IC95: > 500 µM
Mycobacterium kansasii [27]
  MIC: 1000 µM (≈ 402 µg/mL)
Pseudomonas aeruginosa [28]
  IC95: > 500 µM
Mycobacterium avium [29]
  MIC: 1000 µM (≈ 402 µg/mL)
Escherichia coli [30]
  IC95: > 500 µM
Klebsiella pneumoniae [31]
  IC95: > 500 µM
[32]
  pIC50: < 3.30
Mycobacterium kansasii [33]
  MIC: 1000 µM (≈ 402 µg/mL)
Aspergillus fumigatus [34]
  pIC50: < 3.30
[35]
  IC95: > 500 µM
Nakaseomyces glabratus [36]
  IC80: > 500 µM
Klebsiella pneumoniae [37]
  IC95: > 500 µM
Trichosporon asahii [38]
  IC80: > 500 µM
Klebsiella pneumoniae [39]
  IC95: > 500 µM
Escherichia coli [40]
  IC95: > 500 µM
Lichtheimia corymbifera [41]
  pIC50: < 3.30
Candida tropicalis [42]
  IC80: > 500 µM
